Results reported in patent publication EP2394998A1, “3-(5-Amino-6-oxo-1,6-dihydropyridazin-3-yl)-biphenyl derivatives as PDE4 inhibitors” (Almirall, S.A., priority 2010, dated 2011).

biological target: recombinant PDE4 enzyme; experiment: PDE4 assay: [3H] cAMP Scintillation Proximity Assay (SPA) of phosphodiesterase activity; type: biochemical; settings: yeast extract of recombinant PDE4 enzyme; 30 nM [3H] cAMP; 1 h at room temperature; pH 7.5
Procedure: Measurement of Phosphodiesterase Activity was done using a [3H] cAMP Scintillation Proximity Assay (SPA) (GE Healthcare). Compounds to be tested were disolved in dimethylsulfoxide (DMSO) at a stock concentration of 1 mM and serial dilutions were prepared in 50% DMSO to determine IC50s.
The reactions were conducted in 96-well plates (Corning, Ref.3604) at room temperature, in 0.1 mL of reaction buffer containing (final concentrations): 50 mM Tris-HCl, pH 7.5, 8.3 mM MgCl2, 1.7 mM EGTA, 30 nM [3H] cAMP (approximately 150000 dpm/well) with or without the inhibitors. The reaction was initiated by adding yeast extract of recombinant PDE4 enzyme.
Plates were shaken for 1 h at room temperature and the incubation was terminated by adding 50 µL (0.5 mg /well) of SPA ytrium silicate beads (RPNQ 0150; GE Healthcare) in the presence of zinc sulfate. Plates were stored overnight in the dark and read on a TRILUX microtiter plate reader (Perkin Elmer).

| SMILES | IC50 [nM] |
| --- | --- |
| CCn1nc(-c2cccc(-c3ccc(C(=O)O)cc3)c2)cc(Nc2cncc3ccccc23)c1=O [Example 5, 3'-[1-ethyl-5-(isoquinolin-4-ylamino)-6-oxo-1,6-dihydropyridazin-3-yl]biphenyl-4-carboxylic acid] | 0.445 |
| CCn1nc(-c2cccc(-c3cccc(C(N)=O)c3)c2)cc(Nc2cccc3c2ccc[n+]3[O-])c1=O [Example 7, 3'-{1-ethyl-5-[(1-oxidoquinolin-5-yl)amino]-6-oxo-1,6-dihydropyridazin-3-yl}biphenyl-3-carboxamide] | 0.016 |
| CCn1nc(-c2cccc(-c3cccc(C(=O)NCCN(C)C)c3)c2)cc(Nc2cccc3ncccc23)c1=O [Example 12, N-[2-(dimethylamino)ethyl]-3'-[1-ethyl-6-oxo-5-(quinolin-5-ylamino)-1,6-dihydropyridazin-3-yl]biphenyl-3-carboxamide] | 0.125 |
| CCn1nc(-c2cccc(-c3cccc(C(=O)NCCN4CCOCC4)c3)c2)cc(Nc2cncc3ccccc23)c1=O [Example 17, 3'-[1-ethyl-5-(isoquinolin-4-ylamino)-6-oxo-1,6-dihydropyridazin-3-yl]-N-(2-morpholin-4-ylethyl)biphenyl-3-carboxamide] | 0.043 |
| CCn1nc(-c2cccc(-c3cccc(C(=O)NC4CCC4)c3)c2)cc(Nc2cncc3ccccc23)c1=O [Example 19, N-cyclobutyl-3'-[1-ethyl-5-(isoquinolin-4-ylamino)-6-oxo-1,6-dihydropyridazin-3-yl]biphenyl-3-carboxamide] | 0.223 |
| CCn1nc(-c2cccc(-c3ccc(C(=O)NCCN4CCCCC4)cc3)c2)cc(Nc2cncc3ccccc23)c1=O [Example 22, 3'-[1-ethyl-5-(isoquinolin-4-ylamino)-6-oxo-1,6-dihydropyridazin-3-yl]-N-(2-piperidin-1-ylethyl)biphenyl-4-carboxamide] | 0.128 |
| CCn1nc(-c2cccc(-c3cccc(C(=O)NCCCCCCCN(C)CCO)c3)c2)cc(Nc2cccc3ncccc23)c1=O [Example 29, 3'-[1-ethyl-6-oxo-5-(quinolin-5-ylamino)-1,6-dihydropyridazin-3-yl]-N-{7-[(2-hydroxyethyl)(methyl)amino]heptyl}biphenyl-3-carboxamide] | 0.025 |
| CCn1nc(-c2cccc(-c3cccc(C(=O)NC4CCN(C)CC4)c3)c2)cc(Nc2cncc3ccccc23)c1=O [Example 36, 3'-[1-ethyl-5-(isoquinolin-4-ylamino)-6-oxo-1,6-dihydropyridazin-3-yl]-N-(1-methylpiperidin-4-yl)biphenyl-3-carboxamide] | 0.172 |
| CCn1nc(-c2cccc(-c3cccc(CCC(=O)NC4CC4)c3)c2)cc(Nc2cccc3ncccc23)c1=O [Example 38, N-cyclopropyl-3-{3'-[1-ethyl-6-oxo-5-(quinolin-5-ylamino)-1,6-dihydropyridazin-3-yl]biphenyl-3-yl}propanamide] | 0.101 |
| CCn1nc(-c2cccc(-c3cccc(C(=O)NCC(N)=O)c3)c2)cc(Nc2cccc3ncccc23)c1=O [Example 48, N-(2-Amino-2-oxoethyl)-3'-(1-ethyl-6-oxo-5-(quinolin-5-ylamino)-1,6-dihydropyridazin-3-yl)biphenyl-3-carboxamide] | 0.041 |
| CCn1nc(-c2cccc(-c3cccc(C(=O)NCC(=O)O)c3)c2)cc(Nc2cccc3ncccc23)c1=O [Example 49, N-({3'-[1-ethyl-6-oxo-5-(quinolin-5-ylamino)-1,6-dihydropyridazin-3-yl]biphenyl-3-yl}carbonyl)glycine] | 0.042 |
| CCn1nc(-c2cccc(-c3ccc(CC(=O)NCCN4CCCCC4)cc3)c2)cc(Nc2cccc3ncccc23)c1=O [Example 54, 2-{3'-[1-ethyl-6-oxo-5-(quinolin-5-ylamino)-1,6-dihydropyridazin-3-yl]biphenyl-4-yl}-N-(2-piperidin-1-ylethyl)acetamide] | 0.09 |

Further lines, results first:

| IC50 [nM] | SMILES |
| --- | --- |
| 0.037 | CCn1nc(-c2cccc(-c3cccc(C(=O)NC4CC4)c3)c2)cc(Nc2cccc3ncccc23)c1=O [Example 13, N-cyclopropyl-3'-[1-ethyl-6-oxo-5-(quinolin-5-ylamino)-1,6-dihydropyridazin-3-yl]biphenyl-3-carboxamide] |
| 0.019 | CCn1nc(-c2cccc(-c3cccc(C(=O)NCCN4CCOCC4)c3)c2)cc(Nc2cccc3ncccc23)c1=O [Example 15, 3'-[1-ethyl-6-oxo-5-(quinolin-5-ylamino)-1,6-dihydropyridazin-3-yl]-N-(2-morpholin-4-ylethyl)biphenyl-3-carboxamide] |
| 0.045 | CCn1nc(-c2cccc(-c3cccc(C(=O)NCCN4CCCCC4)c3)c2)cc(Nc2cccc3ncccc23)c1=O [Example 16, 3'-[1-ethyl-6-oxo-5-(quinolin-5-ylamino)-1,6-dihydropyridazin-3-yl]-N-(2-piperidin-1-ylethyl)biphenyl-3-carboxamide] |
| 0.209 | CCn1nc(-c2cccc(-c3cccc(C(=O)NC4CCC4)c3)c2)cc(Nc2cccc3ncccc23)c1=O [Example 25, N-cyclobutyl-3'-[1-ethyl-6-oxo-5-(quinolin-5-ylamino)-1,6-dihydropyridazin-3-yl]biphenyl-3-carboxamide] |
| 0.016 | CCn1nc(-c2cccc(-c3cccc(C(=O)NC4CCCC4)c3)c2)cc(Nc2cccc3ncccc23)c1=O [Example 27, N-cyclopentyl-3'-[1-ethyl-6-oxo-5-(quinolin-5-ylamino)-1,6-dihydropyridazin-3-yl]biphenyl-3-carboxamide] |
| 0.023 | CCn1nc(-c2cccc(-c3cc(C(=O)NCCCN4CCC[C@H]4COC)cc(C(=O)NC4CC4)c3)c2)cc(Nc2cccc3ncccc23)c1=O [Example 62, N-cyclopropyl-3'-[1-ethyl-6-oxo-5-(quinolin-5-ylamino)-1,6-dihydropyridazin-3-yl]-N'-{3-[(2S)-2-(methoxymethyl)pyrrolidin-1-yl]propyl}biphenyl-3,5-dicarboxamide] |
| 0.037 | CCn1nc(-c2cccc(-c3cc(C(=O)NCCN4CCC[C@H]4COC)cc(C(=O)NC4CC4)c3)c2)cc(Nc2cccc3ncccc23)c1=O [Example 63, N-cyclopropyl-3'-[1-ethyl-6-oxo-5-(quinolin-5-ylamino)-1,6-dihydropyridazin-3-yl]-N'-{2-[(2S)-2-(methoxymethyl)pyrrolidin-1-yl]ethyl}biphenyl-3,5-dicarboxamide] |
